Data taken from article PMC7083937, “The ribosome-associated complex RAC serves in a relay that directs nascent chains to Ssb” (Nature Communications, 2020).

What was measured:
[1] = system: nascent Pgk1-100; test: crosslinking to ribosome-bound nascent chain; type: binding, Saccharomyces cerevisiae; conditions: BS3
Source text: (§1) DNA templates for transcription reactions were generated by PCR using pSPUTK-Pgk1[20] as a template. Reverse primers were designed such, that PCR products encoded different length PGK1 sequences, which all lacked a stop codon. The length of the resulting translation products, which remain ribosome-bound, is indicated in Results and Figure Legends. Transcripts were generated using SP6 polymerase (Thermo Fischer Scientific) as previously described. RNCs were generated via translation reactions primed with the stop codon-less transcripts at 20 °C in the presence of [^35S]-methionine (Hartmann-Analytic) for 80 min[20],[54]. Translation reactions were stopped by the addition of 50 µg/ml cycloheximide final concentration and subsequently RNCs were isolated via centrifugation at 400.000 g for 20 min in a TLA-100 or TLA-100.2 rotor (Beckman Coulter)[20].
(§2) Chemical crosslinking of ribosome-bound nascent chains to Ssb, Zuo1, or Ssz1 was analyzed essentially as described. In brief, resuspended RNCs were incubated in the presence of 400 µM BS^3 (bis-(sulfosuccinimidyl)-suberate, spacer length 1.14 nm, Thermo Scientific) for 20 min on ice and crosslinking was then quenched by the addition of TRIS base (tris(hydroxymethyl)aminomethane) to a final concentration of 50 mM. Crosslinked protein samples were precipitated by the addition of TCA (final concentration 5%), pellets were collected by centrifugation and were dissolved in dissociation buffer (200 mM TRIS/HCl pH 7.5, 4% SDS; 10 mM EDTA, 100 µg/ml BSA, protease inhibitor mix, 1 mM PMSF). Totals shown in Figs. 1,3 and Supplementary Fig. 1 before (total) and after BS^3 crosslinking (total + BS^3) represent 5% of the dissolved material employed for immunoprecipitation reactions. The resulting denatured protein samples were used to identify crosslink products between Ssb, Zuo1, or Ssz1 and nascent chains via affinity purification under denaturing conditions. To that end, protein A sepharose beads (GE Healthcare) were pre-coated with antibodies directed against Ssb, Zuo1, or Ssz1 and subsequently the denatured crosslinked material was allowed to bind to the beads resuspended in immunoprecipitation buffer (10 mM TRIS/HCl pH 7.5, 150 mM NaCl, 5 mM EDTA, 1% Triton X-100, protease inhibitor mix, 0.5 mM PMSF)[20]. Crosslink products bound to protein A sepharose beads were released by addition of SDS-sample buffer at 95 °C for 10 min. Samples were analyzed on Tris-Tricine gels[56] followed by autoradiography. Loading was normalized according to the signal of [^35S]-labelled nascent Pgk1 in the total prior to crosslinking. Relative crosslinking efficiencies between nascent Pgk1-100 and Zuo1 or Ssz1, respectively were determined as follows. For each biological replicate, band intensities of non-crosslinked nascent Pgk1-100 and of Pgk1-100 crosslink products (XL-Zuo1 or XL-Ssz1) was determined on a single autoradiograph for wild type RAC and the different mutant variants of RAC. The crosslinking efficiency (XL-Zuo1/Pgk1-100 or XL-Ssz1/Pgk1-100) of each sample was calculated and subsequently the ratio of XL-Zuo1/Pgk1-100 or XL-Ssz1/Pgk1-100 in the presence of wild type RAC was set to 1 in order to normalize the biological replicates (see Fig. 3c,d). The original data are provided as a Source Data file.
For complementation experiments translation reactions were performed in either ∆ssb1∆ssb2 or ∆ssb1∆ssb2∆zuo1∆ssz1 translation extract as indicated. Complementation with purified Ssb1 was performed by adding His6-tagged ScSsb1 at a final concentration of 2 µM to the translation reaction prior to the addition of mRNA. Ribosome-free cytosolic extract of various mutant yeast strains for complementation experiments as indicated in Results and Figure Legends was generated as follows. The A260 of a total cell extract prepared by the glass beads method (see above) was determined, and the total cell extract was subsequently adjusted to a final concentration of 800 mM KOAc. […]

[2] = system: nascent Pgk1-45; test: crosslinking to ribosome-bound nascent chain; type: binding, Saccharomyces cerevisiae; conditions: wild type translation extract; BS3
Source text: as §1, §2

[3] = system: nascent Pgk1-150; test: crosslinking to ribosome-bound nascent chain; type: binding, Saccharomyces cerevisiae; conditions: wild type translation extract; BS3; compared with Pgk1-50
Source text: as §1, §2

[4] = system: nascent Pgk1-40; test: crosslinking to ribosome-bound nascent chain; type: binding, Saccharomyces cerevisiae; conditions: wild type translation extract; BS3
Source text: as §1, §2

[5] = system: nascent Pgk1-50; test: crosslinking to ribosome-bound nascent chain; type: binding, Saccharomyces cerevisiae; conditions: wild type translation extract; BS3
Source text: as §1, §2

[6] = system: ribosomes; test: ribosome-binding assay; parameters: species or system Saccharomyces cerevisiae; conditions: for fraction of Ssb ribosome-bound: total cell extract
Procedure: Yeast strains were grown to early log phase on YPD, prior to harvest cycloheximide was added to a final concentration of 100 µg/ml, and subsequently cells were collected via centrifugation at 5000 g. Cell pellets were resuspended in ribosome-binding buffer (20 mM Hepes/KOH pH 7.4, 2 mM Mg(OAc)2, 120 mM KOAc, 100 µg/ml cycloheximide, 2 mM DTT, 1 mM PMSF, protease inhibitor mix) and total cell extracts were prepared by the glass beads method. After a clearing spin at 20.000 g, each 60 µl of the total glass beads extract (A260 between 80 and 100 mAU) was loaded onto a 90 µl sucrose cushion (25% sucrose, 20 mM Hepes/KOH pH 7.4, 120 mM KOAc, 2 mM Mg(OAc)2, 2 mM DTT, 1 mM PMSF, protease inhibitor mix). After centrifugation at 400.000 g at 4 °C for 25 min the cytosolic supernatant was collected and the ribosomal pellet was resuspended in 300 µl ribosome-binding buffer. Aliquots of the total cell extract, cytosolic supernatant, and resuspended ribosomal pellets were precipitated by addition of TCA (trichloroacetic acid) to a final concentration of 5%. TCA pellets were dissolved in SDS-sample buffer and were analyzed on 10% Tris-Tricine gels followed by immunoblotting.

[7] = Δssb1Δssb2 extract, purified Ssb1, 2 µM, added prior to translation

## Ssb: ribosome-associated Hsp70 homolog of yeast, isoforms SSB1 and SSB2
[1]; Fig. 1e set-up
  crosslinking of Ssb to nascent Pgk1 when RAC or Ssz1 is absent from ribosomes, reduced to: < 1/6
[1]; wild type translation extract, compared with Pgk1-50
  crosslink to nascent Pgk1-100: more efficient crosslinks
[1]; [7]
  crosslink of Ssb to nascent Pgk1-100 upon adding purified Ssb: restored
  effect of added purified Ssb on crosslinking to the RAC subunits: strongly reduced
[1]; Δzuo1Δssz1Δssb1Δssb2 RNCs complemented with ribosome-free extracts
  crosslink of Ssb to nascent Pgk1-100, dependence on RAC: Only in the presence of wild type RAC nascent Pgk1-100 formed an efficient crosslink to Ssb
[2]
  crosslink to nascent Pgk1-45: did not form crosslink products with Pgk1-40 or Pgk1-45
[3]
  crosslink to nascent Pgk1-150: more efficient crosslinks
[4]
  crosslink to nascent Pgk1-40: did not form crosslink products with Pgk1-40 or Pgk1-45
[5]
  crosslink to nascent Pgk1-50: weak crosslink
[6]; in vitro translation system, Zuo1ΔN49, no Ssz1, or no Ssz1 and Zuo1
  ribosome-binding of Ssb when RAC or Ssz1 is absent from ribosomes, reduced to: about 1/3
[6]; cells expressing RAC-∆N49
  fraction of Ssb ribosome-bound: about 1/ 3
[6]; wild type, RAC-∆N8, or RAC-∆N16
  fraction of Ssb ribosome-bound: About 2/3
